In brackets after ≈: the same amount, converted by molar mass. Like-named read-outs stand apart in the source and are kept apart here. Each block holds one compound with its values, some of them ahead of it. Non-standard residues stand in square brackets, D forms with d. Residues, ends and D or L forms follow the SMILES beside them.
Experiments:
[1] = 3H tissue distribution of kappa peptide conjugates, conscious rat model; assay type: in vivo, Wistar rats; conditions: ID, 100 μCi, potency corrected
Method: The tissue was weighed and a representative sample, (ca 0.1 g), was removed to a scintillation vial. The tissue was solubilzed with 1 ml of BTS-450 (an organic tissue solubliser). Ten ml of scintillation fluid was added and the radioactivity was measured. The radioactivity was expressed as dpm/initial weight of tissue.

[2] = Systemic 3H bioavailability of kappa peptide conjugates, conscious rat model (plasma); assay type: in vivo, Wistar rats; conditions: intraduodenal (ID), 100 μCi; for bioavailability: rat, plasma, potency corrected, read-out: Absolute 3H bioavailability
Method: The possible enhancing effects of ELAN094 and ELAN207 MTLPs (SEQ ID NOs 2 and 60) on intestinal absorption of the kappa peptide were examined in a conscious rat model.
The study was non-randomised, parallel group design. Wistar rats within the 250-350 g weight range were used. All animals were fasted for a period of 16 h prior to study initiation. Water was available at all times.
Intravenous injection of 10 μCi of ^3H-kappa peptide-Kaffiralin-1 (plain kappa peptide) (tail vein injection).
Intraduodenal instillation of 100 μCi of ^3H-kappa peptide-Elan094 (Analysed). The Elan094 ligand contains a membrane translocating sequence.
Intraduodenal instillation of 100 μCi of ^3H-kappa peptide-Elan207 (Analysed). The Elan207 ligand contains a membrane translocating sequence.
Intraduodenal instillation of 100 μCi of ^3H-kappa peptide-Kaffiralin-1.
The plasma (100-250 μl) was made up to 1 ml with BTS-450 (an organic tissue solubiliser) and incubated for 1 hour. Ten ml of Scintillation fluid was added and the radioactivity was measured.
The study was a non-randomised, parallel group biostudy designed to evaluate the systemic bioavailability of tritium labelled kappa peptide conjugates after intra-duodenal instillation in the conscious rat model. Each rat only received one treatment and the plasma samples were analysed for tritium content. The calculation of AUClast, Amax, tmax, Volume of Distribution (V d) and Clearance was based on base line corrected data. The absolute bioavailability was calculated using potency corrected data.

Caco-2 cell monolayers = assay: Permeability of tritiated kappa peptide conjugates through differentiated Caco-2 cell monolayers; assay type: in vitro ADME, human; conditions: n=5
Method: Highest transport values were obtained in the first 30 min followed by a 2-4 fold decrease at 60 min. The significance of these findings is unclear. The data may be indicative of dual binding/uptake events occurring through i) a kappa receptor specific mechanism and ii) direct membrane interaction through lipid interaction of the membrane permeable peptide.

[3] = Solubility of ZElan094 (physical characteristics); assay type: physicochemical; conditions: water
Caco-2 monolayers [4] = assay: Transport of dipeptide 14C-gly-sar across Caco-2 monolayers; assay type: cell-based, human; parameters: key to % inhibition 14C-gly-sar transport: NS: no significant difference between experimental (+MTLP) and control cells (−MTLP) in the transport of radiolabeled drug; conditions: flux measured over 2 h
Method: (§1) The effect of the MTLPs ZElan094, ZElan178 and ZElan187 (SEQ ID NOS: 2, 7 and 16) and of the targeting peptide ZElan022 (U.S. patent application Ser. Nos. 09/079,819, 09/079,723 AND 09/079,678, AND PCT APPLICATION PCT/US98/10088, PUBLISHED AS WO 98/51325) on the transport of the dipeptide ^14C-gly-sar and of the reporter molecule ^3H-fMLP across Caco-2 monolayers was determined. The Caco-2 monolayers were grown on Transwell-Snapwells. Cell viability was determined by measuring TEER of the Caco-2 monolayers during each experiment. No significant drop in TEER was measured. Cell permeability was determined by measuring mannitol flux across the Caco-2 monolayers during each experiment. No increase in mannitol flux was measured in the presence of the MTLP ZElan094.
(§2) The flux of the dipeptide ^14C-gly-sar and of the reporter molecule ^3H-fMLP across the Caco-2 monolayers in the absence and in the presence of the MTLPs ZElan094, ZElan178 and ZElan187 (SEQ ID NOS: 2, 7 and 16) and of the targeting peptide ZElan022 (U.S. patent application Ser. Nos. 09/079,819, 09/079,723 AND 09/079,678), AND PCT APPLICATION PCT/US98/10088, PUBLISHED AS WO 98/51325 was measured over 2 h, and reduction in the permeability coefficient was determined in the presence of cold substrates.

Caco-2 monolayers [5] = assay: Transport of reporter molecule 3H-fMLP across Caco-2 monolayers; assay type: cell-based, human; conditions: for % inhibition 3H-fMLP transport: flux measured over 2 h
Method: as §1, with “A[…]/US98/10088,” for “APPLICATION PCT/US98/10088,”
as §2, with “A[…]/US98/10088,” for “APPLICATION PCT/US98/10088,”
Caco-2 monolayers were grown and tested for viability as in Example 11. Transport of ^3H-fMLP across Caco-2 monolyers was measured in the presence from 0 to 200 μg/ml of the MTLP ZElan094.

Caco-2 cells = assay: Delivery of DNA from MTLP coated liposomes into Caco-2 cells (β-galactosidase expression); assay type: cell-based, human; conditions: versus lipofectamine+DNA and lipofectamine+DNA+protamine control liposomes
Method: DNA delivery into Caco-2 cells from liposomes and from MTLP coated liposomes was calculated as β-galactosidase expression per mg of total protein in the cell supernatant. β-galactosidase expression was determined using the Boehringer Mannheim chemiluminescence kit. Protein was determined using the Pierce Micro bichinconate (BCA) protein assay.
Caco-2 cells were plated at 1×10^5 cells/well in 1 ml of culture media and incubated at 37° C. in 5% CO2 overnight. The cells were washed twice in 0.5 ml of optiMEM. ZElan094, 204N or 204 (SEQ ID NOS: 2, 23, 24) (Solution 4, Example 9) were each added to triplicate wells (250 μl/well) of the washed cells and incubated for 4 h at 37° C. After 4 h, 250 μl of optiMEM containing 2× fetal calf serum was added and the cells were incubated for an additional 20 h at 37° C. At 24 h post-transfection, the cells were lysed with Boehringer Mannheim Lysis Buffer. The lysate was centrifuged for 2 min at 14,000 rpm in an Eppendorf Centrifiguge and the supernatant was collected.

Compound: CC[C@@H](C)[C@@H](NC(=O)[C@@H](Cc1ccccc1)NC(=O)[C@@H](Cc1ccccc1)NC(=O)[C@@H](CCCCN)NC(=O)[C@H]1CCCN1C(=O)[C@@H](C)NC(=O)[C@@H](C)NC(=O)[C@@H](CC(C)C)NC(=O)[C@@H](CC(C)C)NC(=O)[C@H](NC(=O)[C@H]1CCCN1C(=O)[C@@H](CC(C)C)NC(=O)[C@@H](CC(C)C)NC(=O)[C@H](NC(=O)[C@@H](C)NC(=O)[C@@H](C)NC(=O)[C@@H](C)NC(=O)[C@@H](CCCCN)NC(=O)[C@H](N)CCCCN)C(C)C)C(C)C)C(=O)N[C@H](CCCNC(=N)N)C(N)=O [3H-Kappa peptide-Elan 207] (H-[dK][dK][dA][dA][dA][dV][dL][dL][dP][dV][dL][dL][dA][dA][dP][dK][dF][dF][dI][dR]-NH2; N-terminus and C-terminus assumed)
Catheter, % of administered dose [1]: 0.14 ± 0.09%
GI Tissue, % of administered dose [1]: 4.08 ± 2.47%
GI Washing, % of administered dose [1]: 9.60 ± 16.65%
GI contents, % of administered dose [1]: 26.34 ± 17.00%
Liver, % of administered dose [1]: 0.47 ± 0.20%
Total GI (% recovery from GI tissue, GI contents & GI wash) [1]: 40.03 ± 23.23%
Kidney, % of administered dose ([1]; t=6 h): 0.17 ± 0.07%
Plasma, % of administered dose ([1]; t=6 h): 0.10 ± 0.01%
Total Recovery, % of administered dose ([1]; t=6 h): 40.91 ± 23.32%
Plasma, % of administered dose ([1]; t=6 h, listed as 3H-Kappa peptide Elan207): 0.10±0.01%
3H AUClast ([2]; (Repeat) group): 249021.32±37503.78 dpm/ml·h
3H Amax (maximum radioactivity) ([2]; (Repeat) group): 201464.40±44854.19 dpm/ml
fold increase in absolute 3H bioavailability versus kappa peptide without ligand ([2]; (Repeat) group): approx. 2 fold
3H AUClast ([2]; Elan207 = original group): 162743.70±13549.10 dpm/ml·h
3H Amax (maximum radioactivity) ([2]; Elan207 = original group): 100041.17±6274.57 dpm/ml
fold increase in absolute 3H bioavailability versus kappa peptide without ligand ([2]; listed as Elan207 MTLP): > 1.5 fold
bioavailability ([2]; (Repeat) group): 16.6 ± 2.5%
bioavailability ([2]; Elan207 = original group): 11.5 ± 0.96%
permeability compared to the kappa peptide control (Caco-2 cell monolayers): No significant increase

solubility [3]: 1000 µg/mL (≈ 545 µM)
Compound: CC(C)C[C@H](NC(=O)[C@H](CC(C)C)NC(=O)[C@@H](NC(=O)[C@@H]1CCCN1C(=O)[C@H](CC(C)C)NC(=O)[C@H](CC(C)C)NC(=O)[C@@H](NC(=O)[C@H](C)NC(=O)[C@H](C)NC(=O)[C@H](C)NC(=O)[C@H](CCCCN)NC(=O)[C@H](CCCCN)NC(=O)[C@@H](N)CCCCNS(=O)(=O)c1cccc2c(N(C)C)cccc12)C(C)C)C(C)C)C(=O)N[C@@H](C)C(=O)N[C@@H](C)C(=O)N1CCC[C@H]1C(N)=O [ZElan094]
% inhibition 14C-gly-sar transport (Caco-2 monolayers [4]): NS
inhibition of 14C-gly-sar transport (Caco-2 monolayers [4]): did not inhibit transport
% inhibition 3H-fMLP transport (Caco-2 monolayers [5]; listed as 094): 77.2%
% inhibition 3H-fMLP transport (Caco-2 monolayers [5]; listed as ZElan 094): inhibited transport
inhibition of 3H-fMLP transport (Caco-2 monolayers [5]; range 0 to 200 μg/ml): inhibited

Compound: H-K(ε-dansyl)AAVLLPVLLAAKKKRKA-NH2 ({K(dansyl)}-AAVLLPVLLAAKKKRKA-NH2) [ZElan204N]
DNA delivery into and expression within Caco-2 cells (Caco-2 cells): most effective
